We go through eight compounds from PubChem BioAssay (NCI).

Values joined by “and” are separate entries in the source; they are usually repeats but may differ in a detail not shown here. Identical values can stand only once.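 Compound exposure: 48 hours, 5 concentrations, 96-well plates. The concentration for 50% growth inhibition is given as GI50. TGI denotes the concentration required for complete inhibition of growth.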

Among the test systems are KM12 colon; RPMI-8226 leukemia; HCT-15 colon; OVCAR-4 ovarian; HCC-2998 colon; IGROV1 ovarian; K-562 leukemia; M14 melanoma; OVCAR-3 ovarian; NCI-H23 lung.
What all share (test): NCI anticancer screen, dose series, 48 h

Take `COc1cc(/C=C/c2cc(/C=C/c3ccc(O)c(OC)c3)n(C(=O)c3ccc(Cl)cc3)n2)ccc1O`: the GI50 in the test with KM12 colon was 1240 nM; in the test with RPMI-8226 leukemia, 1830 nM; in the test with HCT-15 colon, 1540 nM; in the test on OVCAR-4 ovarian it was 2020 nM; in the test on HCC-2998 colon it was 3940 nM; in the test with IGROV1 ovarian, 3170 nM. In addition, the GI50 in the test with K-562 leukemia is 807 nM; with M14 melanoma, 1500 nM; with OVCAR-3 ovarian, 2670 nM; in the test with NCI-H23 lung it was 2350 nM. Further, the TGI in the test on KM12 colon stood at 14.4 µM; in the test on RPMI-8226 leukemia it was 6.33 µM; in the test on HCT-15 colon it was 26.1 µM; with OVCAR-4 ovarian it was 34.9 µM; with HCC-2998 colon, 12.8 µM; in the test on IGROV1 ovarian it was 15.4 µM. The TGI with K-562 leukemia was 16.4 µM; in the test with M14 melanoma, 15200 nM; with OVCAR-3 ovarian, 7720 nM; in the test with NCI-H23 lung, 7.95 µM.
As for `CC[C@H](C)[C@H](NC(=O)[C@H]1CCCCN1C)C(=O)N(C)[C@H](C[C@@H](OC(C)=O)c1cccc(C(=O)N[C@@H](Cc2ccccc2)C[C@H](C)C(=O)OC)n1)C(C)C`, the GI50 in the test with KM12 colon was 1.88 nM and 2.5 nM; in the test on RPMI-8226 leukemia it was 2.68 nM and 2.5 nM; in the test with HCT-15 colon it was 8.15 nM and 7.02 nM; in the test with OVCAR-4 ovarian it was 27.7 nM and 13.8 nM; in the test on HCC-2998 colon, 3.62 nM and 2.5 nM; in the test on IGROV1 ovarian, 0.812 nM and 5.06 nM. The GI50 was 2.43 nM and 2.5 nM in the test with K-562 leukemia; 2.27 nM with M14 melanoma; 0.398 nM and < 2.5 nM with OVCAR-3 ovarian; 4.43 nM and 5.21 nM in the test with NCI-H23 lung. The TGI in the test with KM12 colon is greater than 25 µM; in the test with RPMI-8226 leukemia it was 14.5 µM; in the test with HCT-15 colon, 9.64 µM; in the test on OVCAR-4 ovarian it was greater than 25 µM; in the test on HCC-2998 colon it was greater than 25 µM; in the test on IGROV1 ovarian, greater than 25 µM. The TGI with K-562 leukemia was greater than 25 µM; with M14 melanoma it was 12.8 nM; with OVCAR-3 ovarian, 3.08 nM and < 2.5 nM; in the test on NCI-H23 lung it was greater than 25 µM.
As to `C/C=C(\C)c1cc(=O)c2c(C)cc3c(c2o1)C(=O)c1c(O)c(C2CC(C)(N(C)C)C(OC(C)=O)C(C)O2)cc(C2CC(N(C)C)C(O)C(C)O2)c1C3=O` (stereo not given), the TGI was 6.49 µM in the test with KM12 colon; greater than 50 µM with RPMI-8226 leukemia; 12.2 µM in the test with HCT-15 colon; 10.2 µM in the test with OVCAR-4 ovarian; 2.32 µM with HCC-2998 colon; 6.01 µM in the test with IGROV1 ovarian. Further, the TGI in the test on K-562 leukemia was greater than 50 µM; in the test on M14 melanoma it was 1850 nM; in the test with OVCAR-3 ovarian, greater than 21000 nM; in the test with NCI-H23 lung it was greater than 11.9 µM.
`COc1ccc(C2(Cl)c3ccccc3N(c3ccccc3)c3ccccc32)cc1`: the GI50 with KM12 colon is 1180 nM; with RPMI-8226 leukemia, 218 nM; with HCT-15 colon, 909 nM; in the test with OVCAR-4 ovarian, 447 nM; in the test on HCC-2998 colon it was 357 nM; in the test with IGROV1 ovarian, 770 nM. The GI50 is 335 nM with K-562 leukemia, 224 nM in the test on M14 melanoma, 307 nM in the test on OVCAR-3 ovarian and 329 nM in the test with NCI-H23 lung. Besides, the TGI with KM12 colon is 5.54 µM; in the test with RPMI-8226 leukemia, 1.36 µM; in the test on HCT-15 colon, 10.8 µM; with OVCAR-4 ovarian, 2.81 µM; in the test with HCC-2998 colon it was 1.53 µM; in the test with IGROV1 ovarian, 10.3 µM. In addition, the TGI is 12 µM in the test on K-562 leukemia, 1380 nM in the test on M14 melanoma, 1470 nM with OVCAR-3 ovarian and 1.81 µM in the test with NCI-H23 lung.
`NS(=O)(=O)OC[C@H]1C[C@@H](Nc2ccnc3cc(-c4cccc(SC(F)(F)F)c4)nn23)[C@H](O)[C@@H]1O`: the GI50 with KM12 colon was 99.1 nM; in the test on RPMI-8226 leukemia, 641 nM; in the test on HCT-15 colon, 139 nM; with OVCAR-4 ovarian, 27.4 nM; with HCC-2998 colon, 22 nM; in the test on IGROV1 ovarian, 111 nM. Further, the GI50 with K-562 leukemia was less than 14 nM; with M14 melanoma it was 42.9 nM; in the test on OVCAR-3 ovarian, less than 16.6 nM; in the test on NCI-H23 lung it was 33.8 nM. Besides, the TGI in the test with KM12 colon turned out to be 0.368 µM; in the test on RPMI-8226 leukemia, 3 µM; in the test with HCT-15 colon, 0.449 µM; with OVCAR-4 ovarian it was 0.11 µM; with HCC-2998 colon, 0.0442 µM; with IGROV1 ovarian, 0.673 µM. Further, the TGI with K-562 leukemia stood at 1.23 µM; in the test on M14 melanoma, 278 nM; with OVCAR-3 ovarian, 34 nM; in the test with NCI-H23 lung, 0.13 µM.
Turning to `N#C/C(=C\c1cc(O)cc(O)c1)C(N)=O`, the TGI in the test with KM12 colon, with RPMI-8226 leukemia, in the test on HCT-15 colon, with OVCAR-4 ovarian, in the test with HCC-2998 colon and with IGROV1 ovarian was greater than 100 µM in each case. The TGI is greater than 100 µM with K-562 leukemia, greater than 100000 nM in the test with M14 melanoma, greater than 100000 nM with OVCAR-3 ovarian and greater than 100 µM with NCI-H23 lung.
Regarding `CCc1ccc(Oc2c(-c3ccc(OCc4ccc(Cl)cc4)cc3O)n[nH]c2C(F)(F)F)cc1`, the GI50 is 1770 nM with KM12 colon; 2330 nM in the test on RPMI-8226 leukemia; 1600 nM with HCT-15 colon; 1620 nM in the test with OVCAR-4 ovarian; 1930 nM in the test with HCC-2998 colon; 2330 nM in the test with IGROV1 ovarian. Also, the GI50 with K-562 leukemia was 2320 nM; in the test on M14 melanoma, 1880 nM; in the test with OVCAR-3 ovarian, 1780 nM; in the test with NCI-H23 lung it was 1670 nM. Also, the TGI in the test on KM12 colon worked out at 3.35 µM; with RPMI-8226 leukemia it was 5.25 µM; in the test on HCT-15 colon, 3.21 µM; in the test with OVCAR-4 ovarian it was 3.31 µM; in the test on HCC-2998 colon, 4 µM; with IGROV1 ovarian, 6.87 µM. Also, the TGI in the test on K-562 leukemia was 5.37 µM; in the test with M14 melanoma, 3710 nM; in the test on OVCAR-3 ovarian, 3280 nM; with NCI-H23 lung, 3.35 µM.
In the case of `O=C(CCC(=O)Nc1ccc(Cl)c(Cl)c1)Cc1nc2ccccc2o1`, the TGI with KM12 colon, in the test with RPMI-8226 leukemia, in the test on HCT-15 colon, in the test with OVCAR-4 ovarian, in the test with HCC-2998 colon and in the test on IGROV1 ovarian was greater than 100 µM each time. The TGI was greater than 100 µM in the test on K-562 leukemia, greater than 100000 nM in the test on M14 melanoma, greater than 100000 nM with OVCAR-3 ovarian and greater than 100 µM with NCI-H23 lung.
